Reference: ChEMBL document CHEMBL5604063, “ASAP - DENV-2 NS2B-NS3 protease fluorescence dose response” (2024)
“And” between values parts separate entries of the source, which are not always exact repeats. Equal entries are not always repeated. Peptide text beside a SMILES is read from it. * marks the point of attachment. pNA = O=[N+]([O-])c1ccc(N*)cc1; Boc = CC(C)(C)OC(=O)*

Biological target: T1, Genome polyprotein (dengue virus type 2, UniProt P29990)
Assay type: functional, Thailand/16681/1984

T1 sequence (P29990 1346-1475 limits assumed): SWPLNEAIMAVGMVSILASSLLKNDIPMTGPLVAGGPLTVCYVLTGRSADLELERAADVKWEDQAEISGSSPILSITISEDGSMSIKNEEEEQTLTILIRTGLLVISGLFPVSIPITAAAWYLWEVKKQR
T1 sequence (P29990 1476-2093 limits assumed): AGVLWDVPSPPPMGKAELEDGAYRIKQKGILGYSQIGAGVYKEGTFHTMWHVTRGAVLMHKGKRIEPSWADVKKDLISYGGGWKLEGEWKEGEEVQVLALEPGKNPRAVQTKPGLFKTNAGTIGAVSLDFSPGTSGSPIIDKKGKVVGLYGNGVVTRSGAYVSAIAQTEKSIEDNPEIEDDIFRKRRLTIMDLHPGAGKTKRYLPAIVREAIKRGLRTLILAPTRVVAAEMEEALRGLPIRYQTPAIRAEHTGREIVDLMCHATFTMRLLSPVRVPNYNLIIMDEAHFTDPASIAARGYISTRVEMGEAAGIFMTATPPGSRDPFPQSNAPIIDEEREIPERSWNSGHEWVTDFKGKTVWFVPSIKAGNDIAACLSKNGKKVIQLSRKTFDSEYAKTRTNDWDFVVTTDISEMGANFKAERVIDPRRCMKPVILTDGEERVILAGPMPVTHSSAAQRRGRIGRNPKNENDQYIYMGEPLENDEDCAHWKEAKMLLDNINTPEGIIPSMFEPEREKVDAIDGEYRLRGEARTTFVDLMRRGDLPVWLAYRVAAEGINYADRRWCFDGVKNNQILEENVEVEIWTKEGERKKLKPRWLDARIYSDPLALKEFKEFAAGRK

Compound | IC50
N=C(N)NCCC[C@H](NC(=O)c1nccs1)C(=O)N[C@@H](CCCCN)C(=O)N[C@@H](C(N)=O)c1ccc(OCc2ccc(C(F)(F)F)cc2)cc1 | 1.46 µM and 1.87 µM and 1.17 µM and 2.77 µM and 3.21 µM and 2.73 µM and 3 µM and 2.69 µM and 2.58 µM and 2.57 µM (2×) and 2.84 µM (2×) and 3.15 µM and 3.2 µM and 2.52 µM (2×) and 2.33 µM and 2.17 µM and 2.34 µM and 2.39 µM and 2.31 µM and 2.49 µM and 2.93 µM and 2.95 µM and 2.64 µM and 3.09 µM and 2.26 µM and 2.59 µM and 2.92 µM and 2.68 µM and 2.2 µM and 2.3 µM and 2.12 µM and 1.71 µM and 1.91 µM and 1.72 µM and 2.55 µM and 2.1 µM
Cc1c(C(=O)Nc2cccc(-c3nnn[nH]3)c2)sc2ccccc12 | 75.2 µM
Cc1ccncc1-c1cc(CN)cc([C@@H]2C[C@H]2c2cc(Cl)cc(NC(=O)OCc3ccccc3)c2)c1 | > 100 µM
O=C(O)c1cc(Cc2c[nH]c3ccc(Cl)cc23)cc(C2CC2)n1 | > 100 µM
O=C(Nc1cc(Cl)cc(C(=O)Nc2ncc(C3CNC3)s2)c1)OCc1ccccc1 | > 100 µM
CC[C@H](CO)NC(=O)Cn1ccnc(N2CC[C@H](CO)C2)c1=O | > 100 µM
NCc1cccc(NC(=O)c2cccc(CN)c2)c1 | > 100 µM
O=C(Nc1cc(Cl)cc(-c2cc3cc(C(=O)O)ncn3c2)c1)OCc1ccccc1 | 50.1 µM
NCc1cc(Cl)cc(C(=O)Nc2cccc(-c3nn[nH]n3)c2)c1 | > 100 µM
N[C@H]1CCN(c2ccc(NS(=O)(=O)c3ccc(Oc4ccccc4Cl)cc3)cc2)C1 | > 100 µM

Biological target: T1, Genome polyprotein
Assay type: functional, Thailand/16681/1984
Remark: another data set of the same source

Compound | IC50
O=C(Nc1ccc2c(c1)CNC2)c1cc(F)cc(C=C2CCS(=O)(=O)CC2)c1 | > 99.5 µM
Cc1c(C(=O)Nc2ccc3c(c2)C(=O)N(C)C3)cc(C2CC2)n1C | > 99.5 µM
Cc1cc(NC(=O)c2cc(C3CC3)n(C)c2C)ccc1N1CCCC1=O | > 99.5 µM
Cc1c(C(=O)Nc2ccc3c(c2)CCCC(=O)N3)cc(C2CC2)n1C | > 99.5 µM
O=C(Nc1ccc2c(c1)CNC2)c1cc(F)cc(C2=CCCOC2)c1 | > 99.5 µM
Cc1c(C(=O)Nc2cccc(-c3ccc(=O)[nH]n3)c2)cc(C2CC2)n1C | > 99.5 µM
COC(=O)[C@H](C)n1cc2c(C(=O)Nc3ccc4c(c3)CNC4)cc(Cl)cc2n1 | > 99.5 µM
C=CC[C@H]1NCc2cc(NC(=O)c3ccc4c(c3)CC(=O)N4)ccc21 | > 99.5 µM
Brc1cc(CNc2ccc3c(c2)CNC3)c2cc[nH]c2c1 | > 99.5 µM
Cc1cccc(-c2nc3c(C(=O)Nc4ccc5c(c4)CNC5)cc(F)cc3[nH]2)c1 | 8.87 µM and 6.46 µM
Cc1ccccc1-c1nc2c(C(=O)Nc3ccc4c(c3)CNC4)cc(F)cc2[nH]1 | 3.46 µM and 3.38 µM
O=C(Nc1ccc2c(c1)CNC2)c1cc(F)cc2[nH]c(-c3cnccc3O)nc12 | 69.7 µM
O=C(Nc1ccc2c(c1)CNC2)c1cc(Cl)cc2c1cnn2C[C@H]1CCCO1 | > 99.5 µM
C[C@]1(O)C(=O)Nc2cc(F)cc(C(=O)Nc3ccc4c(c3)CNC4)c21 | > 99.5 µM
O=C1Cc2c(cc(F)cc2C(=O)Nc2cc([C@H]3CCOC3)ccn2)N1 | > 99.5 µM
Cc1c(C(=O)Nc2ccc3c(c2)CS(=O)(=O)C3)cc(C2CC2)n1C | > 99.5 µM
CCc1cc(C(=O)Nc2ccc3c(c2)CNC3)cc2cn[nH]c12 | > 99.5 µM
O=C(Nc1ccc2c(c1)CNC2)c1cc(F)c2[nH]nnc2c1 | > 99.5 µM
COCCNC(=O)[C@H](Nc1cccc([C@H]2CCOC2)c1)c1cc(Br)cc2[nH]ccc12 | > 99.5 µM
O=C(Nc1ccc2c(c1)CNC2)c1cc(F)c2[nH]c(=O)[nH]c2c1 | > 99.5 µM
O=C1C[C@H]2CN(C(=O)Nc3ccc4c(c3)CNC4)CC[C@H]2N1 | > 99.5 µM
O=C(NCC(F)F)[C@H](Nc1ccc2c(n1)CNC2)c1cc(Cl)cc(C2CC2)c1 | > 296 µM
Cc1cc(NC(=O)c2cc(C3CC3)n(C)c2C)cnc1N1CCCCC1 | > 99.5 µM
CSCC[C@H](NC(=O)OC(C)(C)C)C(=O)N1CCC[C@H]1C(=O)Nc1ccc([N+](=O)[O-])cc1 (Boc-Met-Pro-pNA) | > 99.5 µM
CSCC[C@H](N)C(=O)N1CCC[C@H]1C(=O)Nc1ccc([N+](=O)[O-])cc1 (H-Met-Pro-pNA) | > 99.5 µM
O=C(Nc1ccccc1)OCc1ccccc1 [BENZYL PHENYLCARBAMATE] | > 99.5 µM
O=C(Nc1ccccc1)Oc1ccccc1 [PHENYL PHENYLCARBAMATE] | > 59.8 µM
